We go through 32 molecules from patent US10111874B2, “Combination therapies for treatment of cancer” (Araxes Pharma LLC, priority 2014, dated 2018).

SMILES strings stand for the structures.

In the assay the target is T1, KRAS G12C 1-169, his-tagged protein, GDP-loaded (Homo sapiens, UniProt P01116, G12C).
T1 construct: KRAS G12C 1-169, his-tagged protein, GDP-loaded
T1 sequence (P01116 1-169 isoform P01116-2 G12C): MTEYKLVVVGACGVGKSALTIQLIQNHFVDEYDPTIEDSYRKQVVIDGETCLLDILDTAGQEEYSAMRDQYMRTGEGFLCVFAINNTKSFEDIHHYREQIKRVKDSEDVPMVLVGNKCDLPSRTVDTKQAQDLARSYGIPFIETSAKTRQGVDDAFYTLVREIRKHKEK
Description: Biochemical assay: covalent binding to KRAS G12C analyzed by mass spectrometry. Note: test concentration or dose not given here. Particulars: compounds 48-246, measured at 2 h.
For the molecule `C=CC(=O)N1CCN(c2ncnc3cc(-c4ccccc4OC)c(Cl)cc23)CC1` [Compound I-97, 1-(4-(6-chloro-7-(2-methoxyphenyl)quinazolin-4-yl)piperazin-1-yl)prop-2-en-1-one], the Binding % result is “++ (++indicates binding activity greater than 25% and up to 50%)”.

`C=CC(=O)N1CCN(c2ncnc3cc(-c4ccccc4C(N)=O)c(Cl)cc23)CC1` [Compound I-98, 2-(4-(4-acryloylpiperazin-1-yl)-6-chloroquinazolin-7-yl)benzamide]: the Binding % entry is given as “+ (+indicates binding activity from 5% to 25%)”.

In the case of `C=CC(=O)N1CCN(c2ncnc3cc(-c4ccccc4C(C)C)c(Cl)cc23)CC1` [Compound I-99, 1-(4-(6-chloro-7-(2-isopeopylphenyl)quinazolin-4-yl)piperazin-1-yl)prop-2-en-1-one], the Binding % result was “+++ (+++indicates binding activity greater than 50% and up to 75%)”.

Consider `C=CC(=O)N1CCN(c2ncnc3cc(-c4ccccc4C(F)(F)F)c(Cl)cc23)CC1` [Compound I-100, 1-(4-(6-chloro-7-(2-(trifluoromethyl)phenyl)quinazolin-4-yl)piperazin-1-yl)prop-2-en-1-one], for which the Binding % entry was “+++ (+++indicates binding activity greater than 50% and up to 75%)”.

For the molecule `C=CC(=O)N1CCN(c2ncnc3cc(-c4cc(Cl)ccc4Cl)c(Cl)cc23)CC1` [Compound I-101, 1-(4-(6-chloro-7-(2,5-dichlorophenyl)quinazolin-4-yl)piperazin-1-yl)prop-2-en-1-one], the Binding % result is “+++ (+++indicates binding activity greater than 50% and up to 75%)”.

Take `C=CC(=O)N1CCN(c2ncnc3cc(-c4ccc(Cl)cc4Cl)c(Cl)cc23)CC1` [Compound I-102, 1-(4-(6-chloro-7-(2,4-dichlorophenyl)quinazolin-4-yl)piperazin-1-yl)prop-2-en-1-one]: the Binding % entry was “+++ (+++indicates binding activity greater than 50% and up to 75%)”.

Turning to `C=CC(=O)N1CCN(c2ncnc3cc(-c4ccccc4COC)c(Cl)cc23)CC1` [Compound I-103, 1-(4-(6-chloro-7-(2-(methoxymethyl)phenyl)quinazolin-4-yl)piperazin-1-yl)prop-2-en-1-one], the Binding % result was “++ (++indicates binding activity greater than 25% and up to 50%)”.

`C=CC(=O)N1CCN(c2ncnc3cc(-c4ccccc4)c(Cl)cc23)CC1C(N)=O` (centres unmarked) [Compound I-104, 1-acryloyl-4-(6-chloro-7-phenylquinazolin-4-yl)piperazine-2-carboxamide]: the Binding % entry was “+++ (+++indicates binding activity greater than 50% and up to 75%)”.

`C=CC(=O)N1CCN(c2ncnc3cc(-c4ccccc4C#N)c(Cl)cc23)CC1` [Compound I-105, 2-(4-(4-acryloylpiperazin-1-yl)-6-chloroquinazolin-7-yl)benzonitrile]: the Binding % entry is recorded as “+ (+indicates binding activity from 5% to 25%)”.

Take `C=CC(=O)N1CCN(c2ncnc3cc(-c4ccccc4F)c(Cl)cc23)CC1CC#N` (centres unmarked) [Compound I-106]: the Binding % result is given as “++++ (++++indicates binding activity greater than 75%)”.

As for `C=CC(=O)N1CCN(c2ncnc3cc(-c4ccccc4CC)c(Cl)cc23)CC1CC#N` (centres unmarked) [Compound I-107, 2-(1-acryloyl-4-(6-chloro-7-(2-ethylphenyl)quinazolin-4-yl)piperazin-2-yl)acetonitrile], the Binding % entry is listed as “++++ (++++indicates binding activity greater than 75%)”.

Regarding `C=CC(=O)N1CCN(c2ncnc3cc(-c4ccccc4CO)c(Cl)cc23)CC1` [Compound I-108, 1-(4-(6-chloro-7-(2-(hydroxymethyl)phenyl)quinazolin-4-yl)piperazin-1-yl)prop-2-en-1-one], the Binding % entry was “++ (++indicates binding activity greater than 25% and up to 50%)”.

Regarding `C=CC(=O)N1CCN(c2ncnc3cc(-c4ccccc4Cl)c(Cl)cc23)CC1CC#N` (centres unmarked) [Compound I-109, 2-(1-acryloyl-4-(6-chloro-7-(2-chlorophenyl)quinazolin-4-yl)piperazin-2-yl)acetonitrile], the Binding % entry is recorded as “++++ (++++indicates binding activity greater than 75%)”.

For the molecule `C=CC(=O)N1CCN(c2ncnc3cc(-c4ccc(Cl)cc4)c(Cl)cc23)CC1CC#N` (centres unmarked) [Compound I-110, 2-(1-acryloyl-4-(6-chloro-7-(4-chlorophenyl)quinazolin-4-yl)piperazin-2-yl)acetonitrile], the Binding % entry is “+++ (+++indicates binding activity greater than 50% and up to 75%)”.

`C=CC(=O)N1CCN(c2ncnc3cc(-c4ccc(Cl)cc4)c(Cl)cc23)CC1CC#N` (centres unmarked) [Compound I-111, 2-(1-acryloyl-4-(6-chloro-7-(4-chlorophenyl)quinazolin-4-yl)piperazin-2-yl)acetonitrile]: the Binding % result is “+++ (+++indicates binding activity greater than 50% and up to 75%)”.

For `C=CC(=O)N1CCN(c2ncnc3cc(-c4ccc(F)cc4F)c(Cl)cc23)CC1` [Compound I-112, 1-(4-(6-chloro-7-(2,4-difluorophenyl)quinazolin-4-yl)piperazin-1-yl)prop-2-en-1-one], the Binding % result is “+++ (+++indicates binding activity greater than 50% and up to 75%)”.

On to `C=CC(=O)N1CCN(c2ncnc3cc(-c4cc(F)ccc4F)c(Cl)cc23)CC1` [Compound I-113, 1-(4-(6-chloro-7-(2,5-difluorophenyl)quinazolin-4-yl)piperazin-1-yl)prop-2-en-1-one], for which the Binding % entry is “+++ (+++indicates binding activity greater than 50% and up to 75%)”.

As for `C=CC(=O)N1CCN(c2ncnc3cc(-c4ccc(Cl)cc4F)c(Cl)cc23)CC1` [Compound I-114, 1-(4-(6-chloro-7-(4-chloro-2-fluorophenyl)quinazolin-4-yl)piperazin-1-yl)prop-2-en-1-one], the Binding % result is “+++ (+++indicates binding activity greater than 50% and up to 75%)”.

As for `C=CC(=O)N1CCN(c2ncnc3cc(-c4cc(Cl)ccc4F)c(Cl)cc23)CC1` [Compound I-115, 1-(4-(6-chloro-7-(5-chloro-2-fluorophenyl)quinazolin-4-yl)piperazin-1-yl)prop-2-en-1-one], the Binding % entry is “+++ (+++indicates binding activity greater than 50% and up to 75%)”.

As to `C=CC(=O)N1CCN(c2ncnc3cc(-c4ccccc4)c(Cl)cc23)CC1CO` (centres unmarked) [Compound I-116, 1-(4-(6-chloro-7-phenylquinazolin-4-yl)-2-(hydroxymethyl)piperazin-1-yl)prop-2-en-1-one], the Binding % entry is “++ (++indicates binding activity greater than 25% and up to 50%)”.

Turning to `C=CC(=O)N1CCN(c2ncnc3cc(-c4ccc(Cl)cc4O)c(Cl)cc23)CC1` [Compound I-117, 1-(4-(6-chloro-7-(4-chloro-2-hydroxyphenyl)quinazolin-4-yl)piperazin-1-yl)prop-2-en-1-one], the Binding % entry is “+++ (+++indicates binding activity greater than 50% and up to 75%)”.

With `C=CC(=O)N1CCN(c2ncnc3cc(-c4cc(Cl)ccc4O)c(Cl)cc23)CC1` [Compound I-118, 1-(4-(6-chloro-7-(5-chloro-2-hydroxyphenyl)quinazolin-4-yl)piperazin-1-yl)prop-2-en-1-one], the Binding % result was “+++ (+++indicates binding activity greater than 50% and up to 75%)”.

For the molecule `C=CC(=O)N1CCN(c2ncnc3cc(-c4ccc(F)cc4C(F)(F)F)c(Cl)cc23)CC1` [Compound I-119, 1-(4-(6-chloro-7-(4-fluoro-2-(trifluoromethyl)phenyl)quinazolin-4-yl)piperazin-1-yl)prop-2-en-1-one], the Binding % result was “+++ (+++indicates binding activity greater than 50% and up to 75%)”.

For `C=CC(=O)N1CCN(c2ncnc3cc(-c4ccccc4F)c(Cl)cc23)CC1C(N)=O` (centres unmarked) [Compound I-120, 1-acryloyl-4-(6-chloro-7-(2-fluorophenyl)quinazolin-4-yl)piperazine-2-carboxamide], the Binding % result is “+++ (+++indicates binding activity greater than 50% and up to 75%)”.

For `C=CC(=O)N1CCN(c2ncnc3cc(-c4ccccc4C(F)(F)F)c(Cl)cc23)CC1C(N)=O` (centres unmarked) [Compound I-121, 1-acryloyl-4-(6-chloro-7-(2-(trifluoromethyl)phenyl)quinazolin-4-yl)piperazine-2-carboxamide], the Binding % result is on record as “++++ (++++indicates binding activity greater than 75%)”.

For `C=CC(=O)N1CCN(c2ncnc3cc(-c4cc(F)ccc4O)c(Cl)cc23)CC1` [Compound I-122, 1-(4-(6-chloro-7-(5-fluoro-2-hydroxyphenyl)quinazolin-4-yl)piperazin-1-yl)prop-2-en-1-one], the Binding % result was “++ (++indicates binding activity greater than 25% and up to 50%)”.

`C=CC(=O)N1CCN(c2ncnc3cc(-c4cccc5ccccc45)c(Cl)cc23)CC1` [Compound I-123, 1-(4-(6-chloro-7-(naphthalen-1-yl)quinazolin-4-yl)piperazin-1-yl)prop-2-en-1-one]: the Binding % result was “++++ (++++indicates binding activity greater than 75%)”.

In the case of `C=CC(=O)N1CCN(c2ncnc3cc(-c4ccccc4C(F)(F)F)c(Cl)cc23)CC1C` (centres unmarked) [Compound I-124, 1-(4-(6-chloro-7-(2-(trifluoromethyl)phenyl)quinazolin-4-yl)-2-methylpiperazin-1-yl)prop-2-en-1-one], the Binding % entry is “+++ (+++indicates binding activity greater than 50% and up to 75%)”.

In the case of `C=CC(=O)N1CCN(c2ncnc3cc(-c4ccccc4C(F)(F)F)c(Cl)cc23)CC1CC#N` (centres unmarked) [Compound I-125, 2-(1-acryloyl-4-(6-chloro-7-(2-(trifluoromethyl)phenyl)quinazolin-4-yl)piperazin-2-yl)acetonitrile], the Binding % result is “++++ (++++indicates binding activity greater than 75%)”.

Turning to `C=CC(=O)N1CCN(c2ncnc3cc(-c4ccccc4C4CC4)c(Cl)cc23)CC1` [Compound I-126, 1-(4-(6-chloro-7-(2-cyclopropylphenyl)quinazolin-4-yl)piperazin-1-yl)prop-2-en-1-one], the Binding % result is given as “++++ (++++indicates binding activity greater than 75%)”.

With `C=CC(=O)N1CCN(c2c(C#N)cnc3cc(-c4ccccc4F)c(Cl)cc23)CC1` [Compound I-127], the Binding % result is reported as “++++ (++++indicates binding activity greater than 75%)”.

As for `C=CC(=O)N1CCN(c2ncnc3cc(-c4cc(O)ccc4Cl)c(Cl)cc23)CC1` [Compound I-128, 1-(4-(6-chloro-7-(2-chloro-5-hydroxyphenyl)quinazolin-4-yl)piperazin-1-yl)prop-2-en-1-one], the Binding % entry was “+++ (+++indicates binding activity greater than 50% and up to 75%)”.
